Source: PubChem BioAssay AID2060328 (Molecular Pharmacology Branch, DTP, NCI, 2025)
Several values for one entry are separate records, joined by “and”; a condition that tells them apart may be missing. Identical values can stand only once.

Test system: MDA-MB-231 multicell spheroids, viability (%T/C)
Experiment: Anticancer human tumor MDA-MB-231 cell line growth inhibition [IpAb];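 also: viability read after seven days of drug exposure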;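 as to viability, T/C: 100% = DMSO vehicle control viability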
Details: for viability, T/C: stronger effect = lower value
Summary of the method: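 Combinations with ipatasertib or abemaciclib were tested on tumour spheroids holding HUVEC (25%) and MSC (15%) alongside 60% malignant cells. Top concentration was at or near clinical Cmax (10 microM if undefined), descending in half-log steps.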

`C=CC(=O)N1CCN(c2nc(=O)n(-c3c(C)ccnc3C(C)C)c3nc(-c4c(O)cccc4F)c(F)cc23)C(C)C1` (configuration not stated) + CC(C)NCC(C(=O)N1CCN(c2ncnc3c2C(C)CC3O)CC1)c1ccc(Cl)cc1 was tested, and the IC50 (curve of first compound, second compound 0.1 µM) was > 10 µM, the IC50 (curve of first compound, second compound 0.316 µM) was > 10 µM and the IC50 (curve of first compound, second compound 1 µM) was > 10 µM. For the same molecule, the IC50 (curve of first compound, second compound 3.16 µM) was > 10 µM, the IC50 (curve of first compound, second compound 10 µM) was < 0.0316 µM and the viability, T/C (second compound 0.1 µM, first compound 0.0316 µM) was 111%. It also gave a viability, T/C (second compound 0.1 µM, first compound 0.1 µM) of 113%, a viability, T/C (second compound 0.1 µM, first compound 0.316 µM) of 116% and a viability, T/C (second compound 0.1 µM, first compound 1 µM) of 129%. It also gave a viability, T/C (second compound 0.1 µM, first compound 3.16 µM) of 120%, a viability, T/C (second compound 0.1 µM, first compound 10 µM) of 78.3% and a viability, T/C (second compound 0.316 µM, first compound 0.0316 µM) of 96.1%. For the same molecule, the viability, T/C (second compound 0.316 µM, first compound 0.1 µM) was 97%, the viability, T/C (second compound 0.316 µM, first compound 0.316 µM) was 105% and the viability, T/C (second compound 0.316 µM, first compound 1 µM) was 111%. For the same molecule, the viability, T/C (second compound 0.316 µM, first compound 3.16 µM) was 95.4%, the viability, T/C (second compound 0.316 µM, first compound 10 µM) was 64.4% and the viability, T/C (second compound 1 µM, first compound 0.0316 µM) was 81.9%. It also gave a viability, T/C (second compound 1 µM, first compound 0.1 µM) of 79.8%, a viability, T/C (second compound 1 µM, first compound 0.316 µM) of 82.3% and a viability, T/C (second compound 1 µM, first compound 1 µM) of 86%. It also gave a viability, T/C (second compound 1 µM, first compound 3.16 µM) of 71%, a viability, T/C (second compound 1 µM, first compound 10 µM) of 52.6% and a viability, T/C (second compound 3.16 µM, first compound 0.0316 µM) of 57.2%. It also gave a viability, T/C (second compound 3.16 µM, first compound 0.1 µM) of 68.6%, a viability, T/C (second compound 3.16 µM, first compound 0.316 µM) of 67% and a viability, T/C (second compound 3.16 µM, first compound 1 µM) of 67.5%. For the same molecule, the viability, T/C (second compound 3.16 µM, first compound 3.16 µM) was 62.1%, the viability, T/C (second compound 3.16 µM, first compound 10 µM) was 44.5% and the viability, T/C (second compound 10 µM, first compound 0.0316 µM) was 42.5%. It also gave a viability, T/C (second compound 10 µM, first compound 0.1 µM) of 45.9%, a viability, T/C (second compound 10 µM, first compound 0.316 µM) of 44.4% and a viability, T/C (second compound 10 µM, first compound 1 µM) of 42.7%. It also gave a viability, T/C (second compound 10 µM, first compound 3.16 µM) of 41.6% and a viability, T/C (second compound 10 µM, first compound 10 µM) of 32.1%.

With `CCCS(=O)(=O)Nc1ccc(F)c(C(=O)c2c[nH]c3ncc(-c4ccc(Cl)cc4)cc23)c1F` the viability, T/C (compound 0.0316 µM) was 112% and 109%, the viability, T/C (compound 0.1 µM) was 111% and 109% and the viability, T/C (compound 0.316 µM) was 106% and 112%. For the same molecule, the viability, T/C (compound 1 µM) was 100% and 104%, the viability, T/C (compound 3.16 µM) was 80.9% and 79.1% and the viability, T/C (compound 10 µM) was 46.6% and 41.1%. The IC50 (curve of compound) was 9 µM and 7.63 µM.
